pKd: −log10 of the molar value. Activity calls are given as the source filed them. The calls are words filed in the database; no cut-off is given here.
Assays:
[1] = Binding affinity to 5'-Biotinylated pre-let-7f-2-loop-mt RNA (unknown origin) by SPR analysis
[2] = Binding affinity to 5'-Biotinylated pre-let-7f-2-loop-mt RNA (unknown origin) at 25 uM by SPR analysis
[3] = Binding affinity to R1-RNA (unknown origin) by SPR analysis
[4] = Binding affinity to R2-RNA (unknown origin) by SPR analysis
[5] = Binding affinity to R1-RNA internal loop (unknown origin) by SPR analysis
[6] = Binding affinity to R1-RNA hairpin loop (unknown origin) by SPR analysis
[7] = Binding affinity to R1-RNA internal loop mutant1 (unknown origin) by SPR analysis
[8] = Binding affinity to R1-RNA internal loop mutant2 (unknown origin) by SPR analysis
[9] = Binding affinity to R1-RNA internal loop mutant3 (unknown origin) by SPR analysis
[10] = Binding affinity to R1-RNA internal loop mutant4 (unknown origin) by SPR analysis
[11] = Binding affinity to 5'-Biotinylated pre-let-7f-2 RNA (unknown origin) by SPR analysis

Structure (SMILES): CC(C)NC(=O)c1ccncc1NC(=O)Nc1nn(C)c2nc(Cl)ncc12
- pKd [1]: 4.75
- Activity [2]: Active

Structure (SMILES): COCC1CCN(c2ncc3c(NC(=O)Nc4cnccc4C(=O)NC(C)C)nn(C)c3n2)C1 (configuration not stated)
- Activity [1]: inactive

Structure (SMILES): Cn1nc(NC(=O)Nc2cnccc2C(=O)N[C@@H](CO)CCCCN)c2cnc(N3CC(F)(F)C(F)(F)C3)nc21
- Activity [3]: Active
- Activity [4]: inactive
- Activity [5]: Active
- Activity [6]: inactive
- Activity [7]: inactive
- Activity [8]: inactive
- Activity [9]: inactive
- Activity [10]: inactive
- Activity [11]: inactive
- Activity [1]: Active
- Activity [2]: Active

Structure (SMILES): CC(C)NC(=O)c1ccncc1NC(=O)Nc1nn(C)c2nc(N3CCC(N(C)C)C3)ncc12 (configuration not stated)
- Activity [2]: Active

Structure (SMILES): CC(C)NC(=O)c1ccncc1NC(=O)Nc1nn(C)c2nc(N3CCC(CN(C)C)C3)ncc12 (configuration not stated)
- Activity [2]: Active

Structure (SMILES): CC(C)NC(=O)c1ccncc1NC(=O)Nc1nn(C)c2nc(N3CCCC3)ncc12
- Activity [1]: inactive
